Results taken from US20260258084A1, “New Peptides as Selective IL-23 Receptor Antagonists” (Sanofi, priority 2022, published 2026).
Converted amounts (≈) assume the structure as drawn. Like-named read-outs stand apart in the source and are kept apart here. Starred links: 1 amine or outer side, 2 acyl side, 3 side chain; linkers in the order of their positions; H or OH if unused. Positions of bridges follow the written chain, without caps; N, C: chain ends. Non-standard residues stand in square brackets, D forms with d. Residues, ends and D or L forms follow the SMILES beside them. *: point of attachment. X5 = CN(C(=O)CCC(=O)[*:3])[C@@H](CS[*:2])C(=O)[*:1]; Trp(7-Me) = Cc1cccc2c(C[C@H](N)C(=O)O)c[nH]c12; X1 = O=C(CCCCN[*:3])N[C@@H](CS[*:2])C(=O)[*:1]; αMeLys(Me2) = CN(C)CCCC[C@](C)(N)C(=O)O; 2Nal = N[C@@H](Cc1ccc2ccccc2c1)C(=O)O; d2Nal = N[C@H](Cc1ccc2ccccc2c1)C(=O)O; 3Pal = N[C@@H](Cc1cccnc1)C(=O)O; Lys(Me) = CNCCCC[C@H](N)C(=O)O; NMeN = CN[C@@H](CC(N)=O)C(=O)O; αMeL = CC(C)C[C@](C)(N)C(=O)O; αMeP = C[C@@]1(C(=O)O)CCCN1; Thp = NC1(C(=O)O)CCOCC1; Me2NCH2CH2 = CN(C)CC*; Aib = CC(C)(N)C(=O)O; Ahx = NCCCCCC(=O)O; Ava = NCCCCC(=O)O; Sar = CNCC(=O)O

How the values were obtained:
[1] = Solubility testing of peptides at different pH; format: physicochemical; conditions: target concentration 1 mg/ml, 2 hours agitation
Procedure, shortened: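 Solid obtained by drying down DMSO stock was taken up at 1 mg/mL in 50 mM HCl pH 1.2 or 50 mM phosphate pH 6.5, 7.4 or 9.0, agitated gently for 2 h, then filtered (0.45 μm). Solubility by UPLC-UV peak area against a DMSO reference standard curve, corrected for extinction coefficients.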

[2] = target: T1, human interleukin-23 receptor (recombinant human IL-23R-Fc chimera) (Homo sapiens, UniProt Q5VWK5); assay: Human ELISA IL23/IL23R (assay for specific human IL23R antagonists); format: binding; conditions: Table 10; read-out: Human ELISA IL23/IL23R IC50
T1 construct: Fc (IgG Fc fusion)
Procedure, shortened: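 Plates coated overnight at 4 °C with human IL23 ([…]), blocked, then serially diluted peptides added with recombinant human IL-23R-Fc (0.1 μg/ml final) for 60 min at room temperature. Bound receptor detected with anti-human IgG1-HRP and fluorogenic peroxidase substrate.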

Pancreatin = assay: Protease stability in simulated intestinal fluid (Pancreatin-SIF, FaSSIF); format: in vitro ADME; conditions: 1 μM peptide, 37° C.; for remaining at 1 h, 1 µM: 60 min, read-out: FaSSIF 60 (min), remaining percent of peptide; for remaining at 2 h, 1 µM: 120 min, read-out: FaSSIF 120 (min), remaining percent of peptide; for remaining at 4 h, 1 µM: 240 min, read-out: FaSSIF 240 (min), remaining percent of peptide
Procedure, shortened: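 Peptide (1 μM final) was incubated at 37° C in simulated intestinal fluid containing pancreatin (1 mg per 10 mL SIF concentrate). Samples were quenched with ethanol/0.1% HCOOH at 0, 60, 120 and 240 min and analysed by LC-MS/MS. Percent remaining is the peak area relative to time 0 (100%).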

[3] = test system: IL-23 induced STAT3 signaling in HEK-Blue™ IL-23 cells; assay: IL-23 induced STAT3 signaling in HEK-Blue IL-23 cells (SEAP reporter); format: cell-based; conditions: human IL23 0.25 ng/ml, read-out: pSTAT3
Procedure, shortened: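 HEK-Blue IL-23 cells (10,000/well) pre-incubated 60 min at 37 °C with serially diluted peptides, then stimulated overnight with human IL-23 (0.25 ng/ml final). STAT3-driven SEAP in supernatant detected with QUANTI-Blue after 45 min at RT (OD 620-655 nm); dose-response curves fitted.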

[4] = Chemical stability assessment of peptides (relative purity loss); format: physicochemical; conditions: 24 hours at 37° C.; for Chemical stability (relative purity loss) Buffer pH 1.2: 50 mM HCl pH 1.2 + acetonitrile (1:1); for Chemical stability (relative purity loss) Buffer pH 7.4: 50 mM phosphate buffer pH 7.4 + acetonitrile (1:1); for Chemical stability (relative purity loss) Buffer pH 6.5: 50 mM phosphate buffer pH 6.5 + acetonitrile (1:1)
Procedure, shortened: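 Peptide solutions at 1 mg/ml (purity-corrected) in 1:1 acetonitrile with 50 mM HCl pH 1.2, or 50 mM phosphate pH 6.5 or pH 7.4, held 24 hours at 2° C. and 37° C. Supernatants analysed by UHPLC-UV; relative purity loss taken as percent drop in peak-area purity from 0 to 24 hours at 37° C.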

Pepsin = test system: T2, Pepsin; assay: Protease stability in simulated gastric fluid (Pepsin-SGF, FaSSGF); format: in vitro ADME; conditions: simulated gastric fluid with pepsin (Pepsin-SGF), 60 min, 1 μM peptide, 37° C., read-out: FaSSGF 60 (min), remaining percent of peptide
T2 construct: purchased Merck Millipore
Procedure, shortened: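 Peptides at 1 μM final in pepsin-containing SGF at 37° C, sampled at 0, 60, 120 and 240 min, quenched with ethanol (0.1% HCOOH). Analysed by LCMS/MS; percent remaining from peak area relative to time 0 (set to 100%).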

[5] = 50 mM HCl buffer, 50 mM HCl pH 1.2, read-out: Solubility Buffer pH 1.2
[6] = 50 mM phosphate buffer pH 6.5, read-out: Solubility Buffer pH 6.5
[7] = 50 mM phosphate buffer pH 7.4, read-out: Solubility Buffer pH 7.4
[8] = 50 mM phosphate buffer pH 9.0, read-out: Solubility Buffer pH 9.0

Row | SMILES | solubility at 2 h [1, 5] | solubility at 2 h [1, 6] | solubility at 2 h [1, 7] | IC50 [2] | remaining at 1 h, 1 µM (Pancreatin) | remaining at 2 h, 1 µM (Pancreatin) | remaining at 4 h, 1 µM (Pancreatin) | Chemical stability (relative purity loss) Buffer pH 1.2 [4] | Chemical stability (relative purity loss) Buffer pH 7.4 [4] | remaining at 1 h, 1 µM (Pepsin) | Chemical stability (relative purity loss) Buffer pH 6.5 [4] | solubility at 2 h [1, 8] | IC50 [3]
1 | COc1ccc(C[C@@H]2NC(=O)[C@@H]3CSSC[C@H](NC(=O)CCCCCNC(=O)C[C@@H](C(=O)N[C@@H](CC(N)=O)C(=O)N[C@@H](CC(N)=O)C(N)=O)NC(=O)C(C)(C)NC(=O)[C@H](Cc4ccc5ccccc5c4)NC2=O)C(=O)N(C)[C@@H](CC(N)=O)C(=O)N[C@@H]([C@@H](C)O)C(=O)N[C@@H](Cc2c[nH]c4ccccc24)C(=O)N[C@@H](CCC(N)=O)C(=O)N3)cc1 [compound 6] ([Ahx]C[NMeN]TWQCY(Me)[2Nal][Aib]DNN-NH2; disulfide 2-7; lactam N-11) | 40 µg/mL (≈ 24.1 µM) | 30 µg/mL (≈ 18 µM) | 20 µg/mL (≈ 12 µM) | 0.68 nM | 78% | 77% | 51% | 27.4% | 3.1% | 1% | – | – | 72.9 nM
2 | COc1ccc(C[C@@H]2NC(=O)[C@@H]3CSSC[C@H](NC(=O)CCCCCNC(=O)CC[C@@H](C(=O)N[C@@H](CC(N)=O)C(=O)N[C@@H](CC(N)=O)C(N)=O)NC(=O)C(C)(C)NC(=O)[C@H](Cc4ccc5ccccc5c4)NC2=O)C(=O)N[C@@H](CC(N)=O)C(=O)N[C@@H]([C@@H](C)O)C(=O)N[C@@H](Cc2c[nH]c4ccccc24)C(=O)N[C@@H](CCC(N)=O)C(=O)N3)cc1 [compound 2] ([Ahx]CNTWQCY(Me)[2Nal][Aib]ENN-NH2; disulfide 2-7; lactam N-11) | 100 µg/mL (≈ 60.1 µM) | < 50 µg/mL | < 50 µg/mL | 0.6 nM | 71% | 71% | 47% | 27.5% | 0.8% | 1% | 0.1% | – | 54 nM
3 | CC(=O)N[C@H]1CCCCNC(=O)[C@@H]2CSSC[C@H](NC(=O)[C@H](CCC(N)=O)NC(=O)[C@H](Cc3c[nH]c4ccccc34)NC1=O)C(=O)N[C@@H](Cc1ccc(OCCN(C)C)cc1)C(=O)N[C@@H](Cc1ccc3ccccc3c1)C(=O)NC1(CCOCC1)C(=O)N[C@H](C(=O)N[C@@H](CC(N)=O)C(=O)NCC(N)=O)CCC(=O)NCCCCC(=O)N2 [compound 30] (Ac-KWQCY(Me2NCH2CH2)[2Nal][Thp]ENG-NH2; linker 1-4-8 via X1) | – | – | – | 0.54 nM | 93% | 92% | 83% | 18.7% | 3.7% | 87% | 2.1% | – | 5.41 nM
4 | CC(=O)NCCCC[C@@H]1NC(=O)[C@H](Cc2c[nH]c3c(C)cccc23)NC(=O)[C@@H](NC(C)=O)CCCCNC(=O)[C@@H]2CSSC[C@H](NC1=O)C(=O)N[C@@H](Cc1ccc(OCCN(C)C)cc1)C(=O)N[C@@H](Cc1ccc3ccccc3c1)C(=O)NC1(CCOCC1)C(=O)N[C@H](C(=O)N[C@@H](CC(N)=O)C(=O)N[C@@H](Cc1cccnc1)C(=O)N(C)CC(N)=O)CCCCN(C)C(=O)CCC(=O)N2C [compound 74] (Ac-K[Trp(7-Me)]K(Ac)CY(Me2NCH2CH2)[2Nal][Thp][Lys(Me)]N[3Pal][Sar]-NH2; linker 1-4-8 via X5) | ≥ 1390 µg/mL | ≥ 980 µg/mL | 330 µg/mL (≈ 174 µM) | 0.54 nM | 87% | 84% | 78% | – | – | 92% | – | 180 µg/mL (≈ 95.1 µM) | 0.12 nM

Now those with a lower IC50 [2], led by results:

Row | solubility at 2 h [1, 5] | solubility at 2 h [1, 6] | solubility at 2 h [1, 7] | IC50 [2] | remaining at 1 h, 1 µM (Pancreatin) | remaining at 2 h, 1 µM (Pancreatin) | remaining at 4 h, 1 µM (Pancreatin) | Chemical stability (relative purity loss) Buffer pH 1.2 [4] | Chemical stability (relative purity loss) Buffer pH 7.4 [4] | remaining at 1 h, 1 µM (Pepsin) | Chemical stability (relative purity loss) Buffer pH 6.5 [4] | solubility at 2 h [1, 8] | SMILES | IC50 [3]
5 | ≥ 910 µg/mL | ≥ 980 µg/mL | ≥ 910 µg/mL | 0.41 nM | 90% | 86% | 81% | – | – | 95% | – | – | Cc1cccc2c(C[C@@H]3NC(=O)[C@H]([C@@H](C)O)NC(=O)[C@H](CC(N)=O)NC(=O)[C@@H]4CSSC[C@H](NC(=O)[C@H](CCC(N)=O)NC3=O)C(=O)N[C@@H](Cc3ccc(OCCN(C)C)cc3)C(=O)N[C@@H](Cc3ccc5ccccc5c3)C(=O)N[C@@](C)(CC(C)C)C(=O)N[C@H](C(=O)N[C@@H](CC(N)=O)C(=O)N[C@@H](Cc3cccnc3)C(=O)N(C)CC(N)=O)CCC(=O)NCCCCC(=O)N4)c[nH]c12 [compound 63] ([Ava]CNT[Trp(7-Me)]QCY(Me2NCH2CH2)[2Nal][αMeL]EN[3Pal][Sar]-NH2; disulfide 2-7; lactam N-11) | 0.2 nM
6 | ≥ 1110 µg/mL | ≥ 1040 µg/mL | ≥ 960 µg/mL | 0.4 nM | 89% | 80% | 82% | – | – | 91% | – | – | CC(=O)NCCCC[C@@H]1NC(=O)[C@H](Cc2c[nH]c3c(C)cccc23)NC(=O)[C@H]([C@@H](C)O)NC(=O)[C@H](CC(N)=O)NC(=O)[C@@H]2CSSC[C@H](NC1=O)C(=O)N[C@@H](Cc1ccc(OCCN(C)C)cc1)C(=O)N[C@@H](Cc1ccc3ccccc3c1)C(=O)NC1(CCOCC1)C(=O)N[C@H](C(=O)N[C@@H](CC(N)=O)C(=O)N[C@@H](Cc1c[nH]cn1)C(=O)N1CCC[C@@]1(C)C(N)=O)CCC(=O)NCCCCC(=O)N2 [compound 55] ([Ava]CNT[Trp(7-Me)]K(Ac)CY(Me2NCH2CH2)[2Nal][Thp]ENH[αMeP]-NH2; disulfide 2-7; lactam N-11) | 0.95 nM
7 | ≥ 1630 µg/mL | ≥ 1040 µg/mL | ≥ 1290 µg/mL | 0.52 nM | 94% | 94% | 88% | – | – | 94% | – | ≥ 1130 µg/mL | CC(=O)NCCCC[C@@H]1NC(=O)[C@H](Cc2c[nH]c3c(C)cccc23)NC(=O)[C@@H](NC(C)=O)CCCCNC(=O)[C@@H]2CSSC[C@H](NC1=O)C(=O)N[C@@H](Cc1ccc(OCCN(C)C)cc1)C(=O)N[C@@H](Cc1ccc3ccccc3c1)C(=O)NC1(CCOCC1)C(=O)N[C@H](C(=O)N[C@@H](CC(N)=O)C(=O)N[C@@H](Cc1cccnc1)C(=O)N(C)CC(N)=O)CCC(=O)NCCCCC(=O)N2 [compound 66] (Ac-K[Trp(7-Me)]K(Ac)CY(Me2NCH2CH2)[2Nal][Thp]EN[3Pal][Sar]-NH2; linker 1-4-8 via X1) | 0.15 nM
8 | ≥ 1090 µg/mL | ≥ 1030 µg/mL | ≥ 1090 µg/mL | 0.24 nM | 98% | 97% | 97% | – | – | 77% | – | – | CC(=O)NCCCC[C@@H]1NC(=O)[C@H](Cc2c[nH]c3ccccc23)NC(=O)[C@@H](NC(C)=O)CCCCNC(=O)[C@@H]2CSSC[C@H](NC1=O)C(=O)N[C@@H](Cc1ccc(OCCN(C)C)cc1)C(=O)N[C@H](Cc1ccc3ccccc3c1)C(=O)N[C@@](C)(CCCCN(C)C)C(=O)N[C@H](C(=O)N[C@@H](CC(N)=O)C(=O)N[C@@H](Cc1cccnc1)C(=O)N(C)CC(N)=O)CCC(=O)NCCCCC(=O)N2 [compound 59] (Ac-KWK(Ac)CY(Me2NCH2CH2)[d2Nal][αMeLys(Me2)]EN[3Pal][Sar]-NH2; linker 1-4-8 via X1) | 0.07 nM
